The test relates to 743489-274-T-PDC complex spheroid growth. Nature of the test: Anticancer human tumor 743489-274-T-PDC patient-derived renal cell carcinoma cell line growth inhibition [AhR]. The settings on record: for viability, T/C: stronger effect = lower value. In outline:
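Spheroids combined tumor cells with HUVEC endothelial cells and human MSCs as stroma. AhR antagonists were paired with standard or investigational drugs, each dosed in half-log steps down from near clinical Cmax, or from 10 microM where Cmax was unknown.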

Setting [1] is: curve of first compound, second compound 0.1 µM.
Setting [2] is: curve of first compound, second compound 0.316 µM.
[3] abbreviates: curve of first compound, second compound 1 µM.
Where [4] appears, read: curve of first compound, second compound 3.16 µM.
Where [5] appears, read: curve of first compound, second compound 10 µM.
Where [6] appears, read: second compound 0.1 µM, first compound 0.0316 µM.
The mark [7] stands for this setting: second compound 0.1 µM, first compound 0.1 µM.
Where [8] appears, read: second compound 0.1 µM, first compound 0.316 µM.
The mark [9] stands for this setting: second compound 0.1 µM, first compound 1 µM.
Setting [10] is: second compound 0.316 µM, first compound 0.0316 µM.
Setting [11] is: second compound 0.316 µM, first compound 0.1 µM.
[12] abbreviates: second compound 0.316 µM, first compound 0.316 µM.
The mark [13] stands for this setting: second compound 0.316 µM, first compound 1 µM.
The mark [14] stands for this setting: second compound 1 µM, first compound 0.0316 µM.
Where [15] appears, read: second compound 1 µM, first compound 0.1 µM.
The mark [16] stands for this setting: second compound 1 µM, first compound 0.316 µM.
The mark [17] stands for this setting: second compound 1 µM, first compound 1 µM.
Setting [18] is: second compound 3.16 µM, first compound 0.0316 µM.
The mark [19] stands for this setting: second compound 3.16 µM, first compound 0.1 µM.
Setting [20] is: second compound 3.16 µM, first compound 0.316 µM.
Where [21] appears, read: second compound 3.16 µM, first compound 1 µM.
Where [22] appears, read: second compound 10 µM, first compound 0.0316 µM.
The mark [23] stands for this setting: second compound 10 µM, first compound 0.1 µM.
[24] abbreviates: second compound 10 µM, first compound 0.316 µM.
[25] abbreviates: second compound 10 µM, first compound 1 µM.
[26] abbreviates: second compound 0.1 µM, first compound 3.16 µM.
Where [27] appears, read: second compound 0.1 µM, first compound 10 µM.
Setting [28] is: second compound 0.316 µM, first compound 3.16 µM.
Setting [29] is: second compound 0.316 µM, first compound 10 µM.
Where [30] appears, read: second compound 1 µM, first compound 3.16 µM.
The mark [31] stands for this setting: second compound 1 µM, first compound 10 µM.
Setting [32] is: second compound 3.16 µM, first compound 3.16 µM.
Setting [33] is: second compound 3.16 µM, first compound 10 µM.
Where [34] appears, read: second compound 10 µM, first compound 3.16 µM.
The mark [35] stands for this setting: second compound 10 µM, first compound 10 µM.

Data on five compounds can be found in PubChem BioAssay AID1919002 (Molecular Pharmacology Branch, DTP, NCI, 2023).

Each structure is given as a SMILES string. Several values for one entry are separate records, joined by “and”; a condition that tells them apart may be missing. Equal values may be shown once.
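Also: spheroids exposed to agents for 7 days before readout.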
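For viability, T/C in this document: 100% = DMSO vehicle control wells.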

As for `CC1COCCN1c1cc(-c2ccnn2C)c2ccnc(-c3ccn[nH]3)c2n1` (centres undefined) + CC(CO)NC(=O)c1cc(-c2ccc(Cl)cc2)nn(-c2cnn(C)c2)c1=O, the IC50 is, setting by setting: under setting [1], over 1 µM; under setting [2], over 1 µM; under setting [3], over 1 µM; under setting [4], over 1 µM; under setting [5], over 1 µM. The viability, T/C is, setting by setting: (second compound 0.1 µM, first compound 0.00316 µM) 105%; (second compound 0.1 µM, first compound 0.01 µM) 97.6%; under setting [6], 99.9%; under setting [7], 91.4%; under setting [8], 99.2%; under setting [9], 88.8%. Besides, the viability, T/C was 92% (second compound 0.316 µM, first compound 0.00316 µM); 97.7% (second compound 0.316 µM, first compound 0.01 µM); 93.9% under setting [10]; 97.2% under setting [11]; 93.4% under setting [12]; 71.5% under setting [13]. In addition, the viability, T/C is, setting by setting: (second compound 1 µM, first compound 0.00316 µM) 87.6%; (second compound 1 µM, first compound 0.01 µM) 90%; under setting [14], 93.4%; under setting [15], 96.2%; under setting [16], 88.9%; under setting [17], 81.8%. The viability, T/C runs as follows: (second compound 3.16 µM, first compound 0.00316 µM) 112%; (second compound 3.16 µM, first compound 0.01 µM) 91.7%; under setting [18], 105%; under setting [19], 92.2%; under setting [20], 88.5%; under setting [21], 65.6%. For the same compound, the viability, T/C reads like this: (second compound 10 µM, first compound 0.00316 µM) 112%; (second compound 10 µM, first compound 0.01 µM) 91.8%; under setting [22], 92.1%; under setting [23], 93.2%; under setting [24], 95.9%; under setting [25], 76.8%.

As for `CC1COCCN1c1cc(C2(S(C)(=N)=O)CC2)nc(-c2ccnc3[nH]ccc23)n1` (centres undefined) + Cc1ccccc1N=Nc1ccc(NC(=O)c2ccnn2C)c(C)c1, the IC50 under setting [1] was over 10 µM; the concentration for half-maximal inhibition (IC50) under setting [2] was over 10 µM; the IC50 under setting [3] was over 10 µM; the half-maximal inhibitory concentration (IC50) under setting [4] was over 10 µM; the concentration for half-maximal inhibition (IC50) under setting [5] is over 10 µM. Moreover, the viability, T/C reads like this: under setting [6], 92.1%; under setting [7], 101%; under setting [8], 92.2%; under setting [9], 97.3%; under setting [26], 98.8%; under setting [27], 102%. The viability, T/C reads like this: under setting [10], 99%; under setting [11], 87.6%; under setting [12], 109%; under setting [13], 88.4%; under setting [28], 86.8%; under setting [29], 99.1%. Besides, the viability, T/C is, setting by setting: under setting [14], 104%; under setting [15], 99.4%; under setting [16], 95.8%; under setting [17], 88%; under setting [30], 88.4%; under setting [31], 81.5%. Moreover, the viability, T/C runs as follows: under setting [18], 86.8%; under setting [19], 85.7%; under setting [20], 95.5%; under setting [21], 78.6%; under setting [32], 83.2%; under setting [33], 80.4%. For the same compound, the viability, T/C by setting is: under setting [22], 85.4%; under setting [23], 89.1%; under setting [24], 87.4%; under setting [25], 84.8%; under setting [34], 78.4%; under setting [35], 75%.

Take `Nc1ccn(C2OC(CO)C(O)C2(F)F)c(=O)n1` (centres undefined) + Cc1cncc(-c2nc(NCCc3c[nH]c4ccccc34)c3ncn(C(C)C)c3n2)c1: the IC50 reads like this: under setting [1], over 10 µM; under setting [2], over 10 µM; under setting [3], over 10 µM; under setting [4], over 10 µM; under setting [5], over 10 µM. In addition, the viability, T/C under setting [6] was 83.1%; the viability, T/C under setting [7] was 76.7%; the viability, T/C under setting [8] is 72.1%; the viability, T/C under setting [9] is 65.2%; the viability, T/C under setting [26] was 65.7%; the viability, T/C under setting [27] is 67.9%. The viability, T/C was 87.1% under setting [10]; 73.2% under setting [11]; 71.9% under setting [12]; 62.3% under setting [13]; 72.3% under setting [28]; 63.4% under setting [29]. For the same compound, the viability, T/C is 85.6% under setting [14]; 90.8% under setting [15]; 74.7% under setting [16]; 64.8% under setting [17]; 79.2% under setting [30]; 68.9% under setting [31]. Further, the viability, T/C was 104% under setting [18]; 93.8% under setting [19]; 77.3% under setting [20]; 62.3% under setting [21]; 74.3% under setting [32]; 67.1% under setting [33]. The viability, T/C reads like this: under setting [22], 138%; under setting [23], 100%; under setting [24], 74.2%; under setting [25], 84.2%; under setting [34], 78.5%; under setting [35], 96.8%.

Consider `COc1cccc2c1C(=O)c1c(O)c3c(c(O)c1C2=O)CC(O)(C(=O)CO)CC3OC1CC(N)C(O)C(C)O1` (centres undefined), for which the viability, T/C is, setting by setting: (compound 0.0316 µM) 100% and 108% and 103%; (compound 0.1 µM) 102% and 110% and 125%; (compound 0.316 µM) 101% and 112% and 108%; (compound 1 µM) 107% and 105% and 103%; (compound 3.16 µM) 88% and 77.8% and 89.9%; (compound 10 µM) 65.5% and 21.7% and 22.8%. Besides, the 50% inhibitory concentration (IC50) (curve of compound) is > 10 µM and 5.59 µM and 6.23 µM.

As for `O=C(C=Cc1cccc(S(=O)(=O)Nc2ccccc2)c1)NO`, the viability, T/C reads like this: (compound 0.0316 µM) 101% and 91.6% and 104%; (compound 0.1 µM) 95.5% and 88.6% and 91.7%; (compound 0.316 µM) 93.9% and 90.1% and 87.8%; (compound 1 µM) 84.5% and 64.3% and 93%; (compound 3.16 µM) 83.8% and 59.3% and 84.6%; (compound 10 µM) 59.8% and 39.6% and 51.1%. The half-inhibitory concentration (IC50) (curve of compound) is > 10 µM and 4.74 µM.
